{"source": "ChEMBL document CHEMBL3352684", "about": "“Discovery of MK-3697: a selective orexin 2 receptor antagonist (2-SORA) for the treatment of insomnia” (Bioorg Med Chem Lett, 2014)", "key": {"[1]": {"experiment": "Cmax in rat at 5 mg/kg, po", "assay_type": "ADME, organism-based", "set-up": "dose 5 mg/kg, route oral", "conditions": "in vivo"}, "[2]": {"experiment": "Oral bioavailability in rat at 5 mg/kg", "assay_type": "ADME, organism-based", "conditions": "in vivo"}, "Rattus norvegicus": {"test_system": "Rattus norvegicus", "experiment": "Increase in slow wave sleep in Sprague-Dawley rat at 15 mg/kg, po after 2 hrs", "assay_type": "functional, organism-based", "set-up": "dose 15 mg/kg"}, "[3]": {"experiment": "Tmax in dog at 3 mg/kg, po", "assay_type": "ADME, organism-based, Canis lupus familiaris", "set-up": "dose 3 mg/kg, route oral", "conditions": "in vivo"}}, "note": "Calls of active or inactive are those of the source. The calls are words filed in the database; no cut-off is given here.", "data": [{"compound": "COc1ccc(CNC(=O)c2cc(-c3cncc(C)c3)ncc2-c2nccs2)nc1OC", "values": [{"measurement": "Cmax", "setting": "[1]", "value": 2100, "unit": "nM"}, {"measurement": "bioavailability", "setting": "[2]", "value": 64, "unit": "%"}, {"measurement": "Activity", "setting": "Rattus norvegicus", "value": "Active"}, {"measurement": "Tmax", "setting": "[3]", "value": 1, "unit": "h"}]}]}
